Reference: patent publication US6653074B1, “Methods for identifying agents which affect cellular morphology, locomotion and death” (Fox Chase Cancer Center, priority 1995, dated 2003)

Assays:
[1] = system: caspase 3; assay: Caspase activity assay: Ac-DEVD-pNA cleavage by lysates of HEF1-expressing MCF-7 cells; type: biochemical, human; settings: z-DEVD-fmk 0.5 μM; Ac-DEVD-pNA 250 μM; lysates of induced HEF1 cells; 24 hr; 405 nm
Experimental: HEF1 expression and caspase activity. Stable cell lines containing parental tetracycline-regulatable vector with or without the full length HEF1 cDNA were generated in MCF-7 cells (Example 2). These were plated at a density of approximately 1×10^6 cells per 100 mm plate into fresh DMEM plus 10% fetal bovine serum in the absence of tetracycline and other selective antibiotics (induced) or in the presence of 1 μg/ml tetracycline (uninduced). Floating and attached cells were combined and extracted in caspase assay buffer (50 mM HEPES, pH 7.4, 100 mM NaCl, 0.1% CHAPS, 10 mM DTT, 1 mM EDTA, and 10% glycerol). Protein content of extracts was determined using the Bio-Rad protein assay as per the manufacturer's instructions (Bio-Rad, Hercules, Calif.). Caspase assays were performed as previously described (DiPietrantonio et al. (1999) Biochem Biophys Res Commun 255:477-82). […] Triplicate samples were incubated at room temperature and the release of pNA product was monitored at 405 nm a microtiter plate reader (Multiskan Plus, Labsystems, Helsinki. Finland). Initial readings were taken at the start of the incubation (T0) and final readings were taken at the completion of the reaction at 24 hr (T1). The change in absorbance over time was determined by subtracting T0 from T1 for each sample.

[2] = system: MCF-7 cells; assay: Induction of apoptosis by TNF-α in MCF-7 cells, Western blot of caspase cleavage products and cell death; type: cell-based, human; settings: 48 hours
Experimental: Induction of apoptosis. MCF-7 cells were plated and grown for 48 hours reaching a cell density of 70% prior to TNF-α addition. Media was replaced with fresh media supplemented with 100 ng/ml TNF-α. TNF-α treatment of stable cell lines was carried out by plating, cells directly into fresh DMEM plus 10% fetal bovine serum, with or without addition of tetracycline as indicated, containing 100 ng/ml TNF-α. Cells floating in the media were collected by centrifugation (1,200 rpm, 5 min) and extracted in combination with attached cells at the time points indicated, as described below. WeHI 231 cells were plated at a density of 5×10^4 cells/ml and treated with 1 μg/ml of α-IgM antibodies in complete media. Cells were collected by centrifugation and lysed as stated below.
Lysates were made as previously described (39; 41) in A-PTY buffer (50 mM HEPES, pH 7.5, 50 mM NaCl, 5 mM EDTA, 1% Triton X-100, 50 mM NaF, 10 mM Na4P2O7 and supplemented each extraction with 1 mM phenylmethylsulfonylfluoride, 0.01 mg/ml aprotinin and 0.01 mg/ml leupeptin). For adherent cultures, floating cells were pooled with the adherent cells prior to lysis. The cell pellet was then lysed in combination with lysates from the attached cells. […] Detection was via chemiluminescence as described (Law et al. (1996) Mol. Cell. Biol. 16: 3327-3337).

[3] = target: the molecule itself; assay: yeast two-hybrid analysis
Excerpt: EGY48 yeast (Gyuris et al., 1993, supra) were transformed by standard methods with plasmids expressing LexA-fusions, activation-domain fusions, or both, together with the LexA operator-LacZ reporter SH18-34 (Gyuris et al., 1993, supra). For all fusion proteins, synthesis of a fusion protein of the correct length in yeast was confirmed by Western blot assays of yeast extracts (Samson et al., Cell 57: 1045–1052, 1989) using polyclonal antiserum specific for LexA (Brent and Ptashne, Nature 312: 612–615, 1984) or for hemagglutinin (Babco, Inc), as appropriate. Activation of the LacZ reporter was determined as previously described (Brent and Ptashne, Cell 43: 729–736, 1985). Beta-galactosidase assays were performed on three independent colonies, on three separate occasions, and values for particular plasmid combinations varied less than 25%. Activation of the LEU2 reporter was determined by observing the colony forming ability of yeast plated on complete minimal medium lacking leucine. The LexA-PRD/HD expressing plasmid has been described (Golemis and Brent, Mol. Cell Biol. 12: 3006–3014, 1992).
The possible functions for the novel carboxy-terminal domains were investigated further using two-hybrid analysis.

Question: With z-DEVD-fmk as the molecule, how does the “activity towards the caspase 3 substrate Ac-DEVD-pNA in HEF1 expressing cells” value [1] read?
Answer: The value was “potently blocked”.

Question: What does the source list for TNF-α?
Answer: cell rounding and death, gross morphology ([2]; TNF-α alone, uninduced cells): low level of cell rounding and death; cell death ([2]; TNF-α together with HEF1 induction): ~100%; PARP cleavage ([2]; uninduced HEF1 cells and vector control MCF-7 cells, TNF-α): detected

B1: HEF1 carboxy-terminal domain (other)
chain: IMKQNKMQLEHHQLSQFQLLEQEITKPVENDISKWKPSQSLPTTNSGVSAQDRQLLCFYYDQCETHFISLLNAIDALFSCVSSAQPPRIFVAHSKFVILSAHKLVFIGDTLTRQVTAQDIRNKVMNSSNQLCEQLKTIVMATKMAALHYPSTTALQEMVHQVTDLSRNAQLFKRSLLEMATF
notes: Tested as a two-hybrid fusion; also called C-terminal effector domain; HEF1-Cterm182
Question: Does B1 bind [3]?
Answer: Result: binds
